# Assay: Acute toxicity (LD50) in mice after intravenous injection into the tail vein, survival after 7 days
# Settings: in vivo, mouse, i.v. tail vein, pH 7-7.5, survival after 7 days
# Experimental: Mice weighing 18-22 g were given varying quantities of the compound as a […] aqueous solution per kg, adjusted to pH 7-7.5 by intravenous injection into the tail vein. After 7 days, the survival rate of the mice was determined and, from this value, the LD50 in mmol/kg of animal was calculated in the usual way.
# (J. Comput. Assist. Tomogr. 7, 1983, 184.)
row,SMILES,LD50 at 168 h [µmol/kg]
1,"CC1(C)CC(NC(=O)CCC(=O)O)CC(C)(C)N1[O] [Compound 1, Succinic Acid (2,2,6,6-tetramethyl-1-oxylpiperidin-4-yl)-amide, reference compound]",10000
2,"CC1(C)CC(C(=O)O)C(C)(C)N1[O] (centres unmarked) [Compound 2, 2,2,5,5-Tetramethylpyrrolidine-1-oxyl-3-carboxylic Acid, reference compound]",10000
3,"CC1(C)C=C(C(=O)NC(CO)C(O)CO)C(C)(C)N1[O] (centres unmarked) [Compound 3, 2,2,5,5-Tetramethyl-3-pyrroline-1-oxyl-3-carboxylic Acid (1,3,4-Trihydroxybut-2-yl)amide]",20000
4,"CC1(C)C=C(C(=O)NCC(O)CO)C(C)(C)N1[O] (centres unmarked) [Compound 4, 2,2,5,5-Tetramethyl-3-pyrroline-1-oxyl-3-carboxylic Acid (2,3-Dihydroxypropyl)amide]",15000
5,"CC1(C)CC(C(=O)NC(CO)C(O)CO)C(C)(C)N1[O] (centres unmarked) [Compound 5, 2,2,5,5-Tetramethylpyrrolidine-1-oxyl-3-carboxylic Acid (1,3,4-Trihydroxybut-2-yl)amide]",25000

# — patent US4925652A, “Nitroxyl compounds, and diagnostic media based thereon useful for enhancing NmR imaging” (Schering Aktiengesellschaft, priority 1983, dated 1990)
